Test results as given in patent US12545650B2, “Bisanthracene derivatives having solubilizing substituent, and organic electroluminescence device using same” (LG Chem, Ltd., priority 2020, dated 2026).

Assay: Solubility test of PAPAP derivatives in cyclohexanone with thermal stirring
Type: physicochemical
Conditions: 10 mg compound in 1 mL cyclohexanone, thermal stirring at about 100° C.
Experimental: Solubility tests were performed on PAPAP-1 and PAPAP-0 obtained from the Synthetic Example using cyclohexanone as a solvent. 10 mg of each of PAPAP-1 and PAPAP-0 was measured, 1 mL of cyclohexanone was added thereto, and thermal stirring was performed at a temperature of about 100° C.
The solubilities of PAPAP-12 and PAPAP-1 were tested using cyclohexanone as a solvent. 10 mg of each of PAPAP-12 and PAPAP-1 was measured, 1 mL of cyclohexanone was added thereto, and thermal stirring was performed at a temperature of about 100° C.

For c1ccc(-c2ccccc2-c2c3ccccc3c(-c3ccc(-c4c5ccccc5c(-c5cccc(N(c6ccccc6)c6ccccc6)c5)c5ccccc45)cc3)c3ccccc23)cc1 [PAPAP-12], which solubility in cyclohexanone is on record?
The solubility in cyclohexanone was “soluble”.

For COc1ccc(-c2c3ccccc3c(-c3ccc(-c4c5ccccc5c(-c5ccc(C#N)cc5)c5ccccc45)cc3)c3ccccc23)cc1 [PAPAP-0, reference compound], which solubility in cyclohexanone is on record?
Its solubility in cyclohexanone is “insoluble”.

With c1ccc(-c2ccccc2-c2c3ccccc3c(-c3ccc(-c4c5ccccc5c(-c5ccc(N(c6ccccc6)c6ccccc6)cc5)c5ccccc45)cc3)c3ccccc23)cc1 [PAPAP-1] as the compound, how does the solubility in cyclohexanone read?
The solubility in cyclohexanone was “soluble”.
